Source: patent US11571480B2, “Multi-ligand drug conjugates and uses thereof” (priority 2015, dated 2023)
Square brackets hold non-standard residues; d marks the D form. Peptide text beside a SMILES is read from it. * marks the point of attachment. Dolaproine = CO[C@@H]([C@@H]1CCCN1)[C@@H](C)C(=O)O; Dil = CC[C@H](C)[C@H](NC)[C@@H](CC(=O)O)OC; X1 = C[C@@H](N*)[C@@H](O)c1ccccc1; NMeV = CN[C@H](C(=O)O)C(C)C

How the values were obtained:
[1] = test system: chronic myeloid leukemia cell line K562; assay: Cytotoxicity test of conjugate LDC10B; format: cell-based; details: K562, Incubation Time 30 min
Procedure: (§1) Culture medium: RPMI 1640 Medium, no folic acid
(§2) 1) human nasopharyngeal cancer cell line KB, melanoma cell line A375, human lung cancer cell H1299, chronic myeloid leukemia cell line K562, human lung cancer cell H460, ovarian cancer cell SKOV3, breast cancer cell line HCC1954, human gastric cancer cell N87, and human breast cancer cell SK-BR-3 were incubated at 37° C., 5% CO2 in RPMI 1640 medium containing 10% fetal bovine serum, the cells were passaged every 2-3 days.
(§3) 2) human nasopharyngeal cancer cell line KB, melanoma cell line A375, human lung cancer cell H1299, chronic myeloid leukemia cell line K562, human lung cancer cell H460, ovarian cancer cell SKOV3, breast cancer cell line HCC1954, human gastric cancer cell N87, and human breast cancer cell SK-BR-3 were plated at 1×10^3 cells per well (96-well plate) and incubated for 8-12 h at 37° C., 5% CO2.
(§4) 3) Stock solutions of LDC conjugates or controls were prepared in PBS solution. 100 μL/well of serially diluted LDC conjugates or controls was added to the test cells in the plates and incubated for 15-30 min at 37° C., 5% CO2. The culture medium in the wells was then removed by aspiration and the test cells were incubated in fresh culture medium without conjugates (150 μL/well) for 2-3 days at 37° C., 5% CO2.
(§5) 4) CellTiter 96® Aqueous One Solution Cell Proliferation Assay (Promega) was added to each well to measure the amount of […] cells, and each plate was incubated in an incubator for 1 h at 37° C., 5% CO2.
(§6) 5) Each plate was read at 490 nm on a microplate reader, and the cell survivals were compared for test cells with or without the treatment of LDC conjugates. The LDC drug concentrations that are required for 50% cell death (IC50 values) were determined.

[2] = test system: human breast cancer cell SK-BR-3; assay: Cytotoxicity test of conjugate LDC10B; format: cell-based; details: SK-BR-3, Incubation Time 30 min
Procedure: as §1, §2, §3, §4, §5, §6

[3] = test system: human gastric cancer cell N87; assay: Cytotoxicity test of conjugate LDC10B; format: cell-based; details: N87, Incubation Time 30 min
Procedure: as §1, §2, §3, §4, §5, §6

[4] = test system: human lung cancer cell H1299; assay: Cytotoxicity test of conjugate LDC10B; format: cell-based; details: H1299, Incubation Time 30 min
Procedure: as §1, §2, §3, §4, §5, §6

[5] = test system: human lung cancer cell H460; assay: Cytotoxicity test of conjugate LDC10B; format: cell-based; details: H460, Incubation Time 30 min
Procedure: as §1, §2, §3, §4, §5, §6

[6] = test system: human nasopharyngeal cancer cell line KB; assay: Cytotoxicity test of conjugate LDC10B; format: cell-based; details: Incubation Time 15 min
Procedure: as §1, §2, §3, §4, §5, §6

melanoma cell line A375 = assay: Cytotoxicity test of conjugate LDC10B; format: cell-based; details: A375, Incubation Time 15 min
Procedure: as §1, §2, §3, §4, §5, §6

[7] = test system: human embryonic kidney cell 293A; assay: Cytotoxicity test of conjugate LDC11B; format: cell-based; details: incubated 15-30 min, then 2-3 days
Procedure: as §1
(§7) 1) human lung cancer cell H460, ovarian cancer cell SKOV3, human embryonic kidney cell 293A were incubated at 37° C., 5% CO2 in RPMI 1640 medium containing 10% fetal bovine serum, the cells were passaged every 2-3 days.
(§8) 2) human lung cancer cell H460, ovarian cancer cell SKOV3, human embryonic kidney cell 293A were plated at 1×10^3 cells per well (96-well plate) and incubated for 8-12 h at 37° C., 5% CO2.
as §4, with “control” for “controls”, “the” for “the test”, “plate” for “plates”
(§9) 4) CellTiter 96® Aqueous One Solution Cell Proliferation Assay (Promega) was added to each well to measure the amount of […] cells, and the plate was incubated in an incubator for 1 h at 37° C., 5% CO2.
(§10) 5) The plate was read at 490 nm on a microplate reader, and the cell survivals were compared for cells with or without the treatment of LDC conjugates. The LDC drug concentrations that are required for 50% cell death (IC50 values) were determined.

[8] = test system: human lung cancer cell H460; assay: Cytotoxicity test of conjugate LDC11B; format: cell-based; details: H460, incubated 15-30 min, then 2-3 days
Procedure: as §1, §7, §8
as §4, with “control” for “controls”, “the” for “the test”, “plate” for “plates”
as §9, §10

[9] = test system: ovarian cancer cell SKOV3; assay: Cytotoxicity test of conjugate LDC11B; format: cell-based, human; details: SKOV3, incubated 15-30 min, then 2-3 days
Procedure: as §1, §7, §8
as §4, with “control” for “controls”, “the” for “the test”, “plate” for “plates”
as §9, §10

[10] = test system: human colon carcinoma HCT-116; assay: Cytotoxicity test of conjugate LDC12B; format: cell-based; details: HCT-116, incubated 15-30 min, then 2-3 days
Procedure: as §1
(§11) 1) human endometrial cancer cell HEC-1A, human gastric cancer cell line GTL-16, human colon carcinoma HCT-116, human neuroblastoma cell line SH-SY5Y were incubated at 37° C., 5% CO2 in RPMI 1640 medium containing 10% fetal bovine serum, the cells were passaged every 2-3 days.
(§12) 2) human endometrial cancer cell HEC-1A, human gastric cancer cell line GTL-16, Human colon carcinoma HCT-116, human neuroblastoma cell line SH-SY5Y were plated at 1×10^3 cells per well (96-well plate) and incubated for 8-12 h at 37° C., 5% CO2.
as §4, with “control” for “controls”, “the” for “the test”, “plate” for “plates”
as §9
(§13) 5) the plate was read at 490 nm on a microplate reader, and the cell survivals were compared for cells with or without the treatment of LDC conjugates. The LDC drug concentrations that are required for 50% cell death (IC50 values) were determined.

[11] = test system: human endometrial cancer cell HEC-1A; assay: Cytotoxicity test of conjugate LDC12B; format: cell-based; details: incubated 15-30 min, then 2-3 days
Procedure: as §1, §11, §12
as §4, with “control” for “controls”, “the” for “the test”, “plate” for “plates”
as §9, §13

[12] = test system: human gastric cancer cell line GTL-16; assay: Cytotoxicity test of conjugate LDC12B; format: cell-based; details: GTL-16, incubated 15-30 min, then 2-3 days
Procedure: as §1, §11, §12
as §4, with “control” for “controls”, “the” for “the test”, “plate” for “plates”
as §9, §13

[13] = test system: human neuroblastoma cell line SH-SY5Y; assay: Cytotoxicity test of conjugate LDC12B; format: cell-based; details: incubated 15-30 min, then 2-3 days
Procedure: as §1, §11, §12
as §4, with “control” for “controls”, “the” for “the test”, “plate” for “plates”
as §9, §13

[14] = test system: human lung cancer cell H1299; assay: Cytotoxicity test of conjugate LDC10H; format: cell-based; details: H1299, incubated 15-30 min, then 2-3 days
Procedure: as §1
(§14) 1) human lung cancer cell H1299, ovarian cancer cell SKOV3, breast cancer cell line HCC1954, and human lung cancer cell H460 were incubated at 37° C., 5% CO2 in RPMI 1640 medium containing 10% fetal bovine serum, the cells were passaged every 2-3 days.
(§15) 2) human lung cancer cell H1299, ovarian cancer cell SKOV3, breast cancer cell line HCC1954, and human lung cancer cell H460 were plated at 1×10^3 cells per well (96-well plate) and incubated for 8-12 h at 37° C., 5% CO2.
as §4, with “control” for “controls”, “the” for “the test”, “plate” for “plates”
as §9, §13

[15] = test system: human lung cancer cell H460; assay: Cytotoxicity test of conjugate LDC10H; format: cell-based; details: H460, incubated 15-30 min, then 2-3 days
Procedure: as §1, §14, §15
as §4, with “control” for “controls”, “the” for “the test”, “plate” for “plates”
as §9, §13

SMILES: CC[C@H](C)[C@@H]([C@@H](CC(=O)N1CCC[C@H]1[C@H](OC)[C@@H](C)C(=O)N[C@H](C)[C@@H](O)c1ccccc1)OC)N(C)C(=O)[C@@H](NC(=O)[C@@H](NC)C(C)C)C(C)C [MMAE] (H-[NMeV]V[Dil][Dolaproine]-X1)
- IC50 [1]: 0.54 nM
- IC50 [2]: 0.52 nM
- IC50 [3]: 0.68 nM
- IC50 [4]: 0.86 nM
- IC50 [5]: 0.77 nM
- IC50 [6]: 89 nM
- IC50 (melanoma cell line A375): 100 nM
- IC50 [7]: 0.86 nM
- IC50 [8]: 0.58 nM
- IC50 [9]: 0.44 nM
- IC50 [10]: 12.7 nM
- IC50 [11]: 8.74 nM
- IC50 [12]: 6.38 nM
- IC50 [13]: 24 nM
- IC50 [14]: 0.71 nM
- IC50 [15]: 0.56 nM
